Measurements: patent publication EP1628135A1, “Method for detecting medically relevant conditions in a solubilized LBC sample” (MTM Laboratories AG, priority 2004, dated 2006)
Like-named read-outs stand apart in the source and are kept apart here. Where a SMILES comes first, the peptide text is derived from it. [ ]: non-standard residue; d: D form. The star is where a group is joined. Sta = CC(C)C[C@H](N)[C@@H](O)CC(=O)O; Isovaleryl = CC(C)CC(=O)*

Columns and labels:
p16^INK4a = test: Stabilization of p16INK4a by proteinase inhibitors in mtm lysis medium
[1] = Stability of proteinase inhibitors in water
[2] = Solubility of proteinase inhibitors in water
[3] = inhibitor at the concentration listed in Table 2

Row | SMILES | p16^INK4a stabilization in mtm Lysis medium (p16^INK4a; [3]) | stability in water [1] | Solubility in water [2] | p16^INK4a stabilization in mtm Lysis medium (p16^INK4a)
1 | N=C(N)c1ccccc1 [Benzamidine] | no | good | good | 
2 | CC(C)C[C@H](NC(=O)[C@@H](O)[C@H](N)Cc1ccccc1)C(=O)O [Bestatin] | no | good | good | 
3 | CCCC[C@@H](C=O)NC(=O)[C@H](CC(C)C)NC(=O)OCc1ccccc1 [Calpeptin] | no | good | good | 
4 | CC(C)C[C@H](NC(=O)[C@H]1O[C@@H]1C(=O)O)C(=O)NCCCCN=C(N)N [E-64] | no | good | good | 
5 | O=C(O)CN(CCN(CC(=O)O)CC(=O)O)CC(=O)O [EDTA] |  |  |  | no
6 | CCOC(=O)[C@H]1O[C@@H]1C(=O)N[C@@H](CC(C)C)C(=O)NCCC(C)C [EST] | no | poor | bad | 
7 | CC(C)C[C@H](NC(=O)N[C@H](C(=O)N[C@@H](CCC(N)=O)C(=O)N[C@@H](C)C=O)[C@@H]1CCNC(=N)N1)C(=O)O [Elastatinal] | no | good | poor | 
8 | CC(=O)N[C@@H](CC(C)C)C(=O)N[C@@H](CC(C)C)C(=O)N[C@H](C=O)CCCNC(=N)N [Leupeptin] | no | good | good | 
9 | CCOC(=O)[C@@H]1O[C@H]1C(=O)NC(CC(C)C)C(=O)N1CCN(Cc2ccc(OC)c(OC)c2OC)CC1.CCOC(=O)[C@@H]1O[C@H]1C(=O)NC(CC(C)C)C(=O)N1CCN(Cc2ccc(OC)c(OC)c2OC)CC1.O=S(=O)(O)O (stereo partly shown) [NCO-700] | no | poor | poor | 
10 | O=S(=O)(F)Cc1ccccc1 [PMSF] | yes |  |  | 
11 | NCCc1ccc(S(=O)(=O)F)cc1 [Pefabloc= AEBSF, AEBSF] | yes |  |  | 
12 | CC(C)CC(=O)N[C@H](C(=O)N[C@H](C(=O)N[C@@H](CC(C)C)[C@@H](O)CC(=O)N[C@@H](C)C(=O)N[C@@H](CC(C)C)[C@@H](O)CC(=O)O)C(C)C)C(C)C [Pepstatin A] (Isovaleryl-VV[Sta]A[Sta]-OH) | no |  |  | 
13 | c1cnc2c(c1)ccc1cccnc12 [o-Phenanthroline] | no | poor | bad | 
